Reference: US20240335431A1, “1-H-PYRROLO[2,3-c]PYRIDINE COMPOUNDS” (Acerta Pharma B.V., priority 2023, published 2024)
pIC50: −log10 of the molar value.

Experiments:
[1] = Caco-2 cell monolayers intrinsic permeation assay in the presence of efflux inhibitors; assay type: in vitro ADME; settings: Caco-2, with efflux inhibitors
Excerpt: Caco-2 cells were obtained from American Type Culture Collection (ATCC). HEPES, penicillin, streptomycin, bovine serum albumin (BSA) were obtained from Beijing Xinjingke Biotechnology Co, Ltd. Fetal bovine serum, Hank's balanced salt solution (HBSS) and non-essential amino acids (NEAA) were purchased from Gibco. Dulbecco's Modified Eagle's Medium (DMEM) was purchased from Corning and MES from Sigma. HTS Transwell-24 permeable supports were purchased from Corning. Zosuquidar and Ko-143 were obtained from MedChemExpress and Benzbromarone from Sigma.
The Caco-2 cell culture medium consisted of DMEM with high glucose and L-glutamine supplemented with 10% FBS, 0.1 mg/mL streptomycin, 100 units of penicillin, 0.6 mg/mL kanamycin sulfate and 1×NEAA. […] culture medium was added to each Transwell insert with 800 mL added to each well of the reservoir. After incubation at 37° C. in 5% CO2 for 1 hour, the plates were ready for seeding.
The cells were cultivated in T-75 flasks at 37° C., 5% CO2, 95% relative humidity. At 80 to 90% confluence, cells were treated with trypsin/EDTA treatment until they became detached. The trypsin/EDTA was inactivated by adding excess serum containing medium. The cell suspension was centrifuged at 120 g for 10 minutes followed by resuspension of the cell pellet in seeding medium at a cell density of 7.92×10^5 cells/mL.
[…] of the resulting cell suspension was added to each well of the Transwell plate and incubated for 14 to 18 days, with medium replaced every other day. After incubation for 14 to 18 days, the cells should have reached confluence and should be tested for electrical resistance using a Millicel Epithelial Volt-Ohm measuring system (Millipore).
The cell monolayers were washed twice with pre-warmed HBSS and incubated at 37° C. for 30 minutes under gentle shaking (480 rpm).
The compound under test was presented as a 10 mM DMSO stock solution. 2 mL of the 10 mM stock was added to 8 mL DMSO to produce a 2 mM stock. 2 mL was added to 398 mL of HBSS containing 10 mM Zosuquidar, 30 mM Benzbromarone and 2 mM KO-143 to make a […] solution.
210 mL of the test compound solution was added to the apical compartment of the Transwell plate, with a 10 mL sample taken to act as the time 0 sample. The wells of the receiver (basolateral) compartment were filled with 800 mL HBSS (containing the efflux inhibitors). The plates were incubated at 37° C. with shaking at 480 rpm for 120 minutes with sampling at 45 and 120 minutes.
At each sampling time (0, 45 and 120 minutes) 10 mL was removed from the apical compartment and add to 90 mL (HBSS containing the efflux inhibitors). 100 mL was removed from each basolateral compartment. 3 volumes of cold acetonitrile containing internal standard was added to each sample and vortex mixed for 10 minutes at 100 rpm. Samples were then centrifuged at 400 rpm for 20 minutes. 50 mL of the supernatant was taken for LC/MS/MS analysis to determine compound concentration.
The apparent permeability (Papp), in units of centimetre per second, were calculated for Caco-2 drug transport using the following equation: […]
Where CR is the concentration of compound in the receiver side at the respective time point, CD is the concentration of compound in the donor side at the respective timepoint. Area is the surface area of the membrane and time is 4500 seconds (75×60 seconds).

MOLM-13 cells = assay: Proliferation assay, MOLM-13 (CellTiter-Glo, 7 days); assay type: cell-based, human; settings: Homo sapiens, MOLM-13, 168 h
Method in brief: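 Cells seeded at 125 (MOLM-13), 300 (MV4;11), 75 (OCI-AML3) or 200 (HEL) per well were exposed to 3.16-fold compound dilutions (0.1% DMSO) for 7 days at 37° C. Viability by CellTiter-Glo luminescence, normalized to DMSO (100%) and day-0 plate (0%); IC50 from one-site dose-response fit.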

| Structure (SMILES) | Papp A→B [1] [nm/s] | pIC50 (MOLM-13 cells) |
| --- | --- | --- |
| CC(C)N(C(=O)c1cc(F)ccc1-n1cc(C(=O)[C@H]2CCN(C[C@H]3CC[C@H](NS(C)(=O)=O)CC3)C2)c2ccncc21)C(C)C [Example 1, 5-Fluoro-N,N-diisopropyl-2-(3-((S)-1-(((1r,4S)-4-(methylsulfonamido)-cyclohexyl)methyl)pyrrolidine-3-carbonyl)-1H-pyrrolo[2,3-c]pyridin-1-yl)benzamide] | 27 | 6.83 |
| CC(C)N(C(=O)c1cc(F)ccc1-n1cc(C(=O)[C@H]2CCN(C(=O)[C@H]3N[C@@H]4CC[C@H]3C4)C2)c2ccncc21)C(C)C [Example 2, 2-(3-((S)-1-((1R,3S,4S)-2-Azabicyclo[2.2.1]heptane-3-carbonyl)pyrrolidine-3-carbonyl)-1H-pyrrolo[2,3-c]pyridin-1-yl)-5-fluoro-N,N-diisopropylbenzamide] | 4 | 6.98 |
| CC(C)N(C(=O)c1cc(F)ccc1-n1cc(C(=O)[C@@H]2CCN(C(=O)[C@H]3N[C@@H]4CC[C@H]3C4)C2)c2ccncc21)C(C)C [Example 3, 2-(3-((R)-1-((1R,3S,4S)-2-Azabicyclo[2.2.1]heptane-3-carbonyl)pyrrolidine-3-carbonyl)-1H-pyrrolo[2,3-c]pyridin-1-yl)-5-fluoro-N,N-diisopropylbenzamide] | 3 | 7.01 |
| CC(C)N(C(=O)c1cc(F)ccc1-n1cc(C(=O)[C@@H]2CCN(C[C@H]3CC[C@H](NS(C)(=O)=O)CC3)C2)c2ccncc21)C(C)C [Example 4, 5-Fluoro-N,N-diisopropyl-2-(3-((R)-1-(((1r,4R)-4-(methylsulfonamido)-cyclohexyl)methyl)pyrrolidine-3-carbonyl)-1H-pyrrolo[2,3-c]pyridin-1-yl)benzamide] | 20 | 6.81 |
| CCN(C(=O)c1cc(F)ccc1-n1cc(C(=O)C2CN(C(=O)[C@H]3N[C@@H]4CC[C@H]3C4)C2)c2ccncc21)C(C)C [Example 8, 2-(3-(1-((1R,3S,4S)-2-Azabicyclo[2.2.1]heptane-3-carbonyl)azetidine-3-carbonyl)-1H-pyrrolo[2,3-c]pyridin-1-yl)-N-ethyl-5-fluoro-N-isopropylbenzamide] | 2 | 6.85 |
| CCN(C(=O)c1cc(F)ccc1-n1cc(C(=O)C2CN(C(=O)[C@H]3NC4CCC3CC4)C2)c2ccncc21)C(C)C [Example 9, (S)-2-(3-(1-(2-Azabicyclo[2.2.2]octane-3-carbonyl)azetidine-3-carbonyl)-1H-pyrrolo[2,3-c]pyridin-1-yl)-N-ethyl-5-fluoro-N-isopropylbenzamide] | 5 | 6.92 |
| CC(C)c1ncsc1-c1cc(F)ccc1-n1cc(C(=O)C2CN(C(=O)[C@H]3N[C@@H]4CC[C@H]3C4)C2)c2ccncc21.O=CO [Example 12, (1-((1R,3S,4S)-2-Azabicyclo[2.2.1]heptane-3-carbonyl)azetidin-3-yl)(1-(4-fluoro-2-(4-isopropylthiazol-5-yl)phenyl)-1H-pyrrolo[2,3-c]pyridin-3-yl)methanone 1·formic acid] | 16 | 6.99 |
| CC(C)N(C(=O)c1cc(F)ccc1-n1cc(C(=O)C2CN(C(=O)[C@H]3N[C@@H]4CC[C@H]3C4)C2)c2ccnc(F)c21)C(C)C [Example 15, 2-(3-(1-((1R,3S,4S)-2-Azabicyclo[2.2.1]heptane-3-carbonyl)azetidine-3-carbonyl)-7-fluoro-1H-pyrrolo[2,3-c]pyridin-1-yl)-5-fluoro-N,N-diisopropylbenzamide] | 42 | 7.01 |
| CC(C)N(C(=O)c1cc(F)ccc1-n1cc(C(=O)C2CCN(C[C@H]3CC[C@H](NS(C)(=O)=O)CC3)CC2)c2ccncc21)C(C)C [Example 17, 5-Fluoro-N,N-diisopropyl-2-(3-(1-(((1r,4r)-4-(methylsulfonamido)cyclohexyl)-methyl)piperidine-4-carbonyl)-1H-pyrrolo[2,3-c]pyridin-1-yl)benzamide] | 18 | 6.97 |

Compounds with a higher pIC50 (MOLM-13 cells), results first:

| Papp A→B [1] [nm/s] | pIC50 (MOLM-13 cells) | Structure (SMILES) |
| --- | --- | --- |
| 12 | 7.13 | CC(C)N(C(=O)c1cc(F)ccc1-n1cc(C(=O)C2CN(C(=O)[C@H]3N[C@@H]4CC[C@H]3C4)C2)c2ccncc21)C(C)C [Example 5, 2-(3-(1-((1R,3S,4S)-2-Azabicyclo[2.2.1]heptane-3-carbonyl)azetidine-3-carbonyl)-1H-pyrrolo[2,3-c]pyridin-1-yl)-5-fluoro-N,N-diisopropylbenzamide] |
| < 5 | 7.14 | CC(C)N(C(=O)c1cc(F)ccc1-n1cc(C(=O)C2CN(C(=O)[C@H]3NC4CCC3CC4)C2)c2ccncc21)C(C)C [Example 6, (S)-2-(3-(1-(2-Azabicyclo[2.2.2]octane-3-carbonyl)azetidine-3-carbonyl)-1H-pyrrolo[2,3-c]pyridin-1-yl)-5-fluoro-N,N-diisopropylbenzamide] |
| 22 | 7.20 | CC(C)N(C(=O)c1cc(F)ccc1-n1cc(C(=O)C2CN(C(=O)[C@H]3N[C@H]4C[C@@H]3[C@@H](F)C4)C2)c2ccncc21)C(C)C [Example 7, 5-Fluoro-2-(3-(1-((1S,3S,4S,5S)-5-fluoro-2-azabicyclo[2.2.1]heptane-3-carbonyl)azetidine-3-carbonyl)-1H-pyrrolo[2,3-c]pyridin-1-yl)-N,N-diisopropylbenzamide] |
| 31 | 7.24 | C=C1C[C@@H]2CC[C@H]1[C@@H](C(=O)N1CCC(C(=O)c3cn(-c4ccc(F)cc4C(=O)N(C(C)C)C(C)C)c4cnccc34)CC1)N2 [Example 18, 5-Fluoro-N,N-diisopropyl-2-(3-(1-((1S,3S,4R)-5-methylene-2-azabicyclo[2.2.2]-octane-3-carbonyl)piperidine-4-carbonyl)-1H-pyrrolo[2,3-c]pyridin-1-yl)benzamide] |
| 17 | 7.29 | CC(C)(F)c1ncccc1-c1cc(F)ccc1-n1cc(C(=O)C2CN(C(=O)[C@H]3N[C@@H]4CC[C@H]3C4)C2)c2ccncc21 [Example 13, (1-((1R,3S,4S)-2-Azabicyclo[2.2.1]heptane-3-carbonyl)azetidin-3-yl)(1-(4-fluoro-2-(2-(2-fluoropropan-2-yl)pyridin-3-yl)phenyl)-1H-pyrrolo[2,3-c]pyridin-3-yl)methanone] |
| 7 | 7.30 | CC(C)c1cnccc1-c1cc(F)ccc1-n1cc(C(=O)C2CN(C(=O)[C@H]3N[C@@H]4CC[C@H]3C4)C2)c2ccncc21.O=CO [Example 11, (1-((1R,3S,4S)-2-Azabicyclo[2.2.1]heptane-3-carbonyl)azetidin-3-yl)(1-(4-fluoro-2-(3-isopropylpyridin-4-yl)phenyl)-1H-pyrrolo[2,3-c]pyridin-3-yl)methanone 1·formic acid] |
| 6 | 7.46 | CC(C)N(C(=O)c1cc(F)ccc1-n1cc(C(=O)C2CCN(C(=O)[C@H]3N[C@@H]4CC[C@H]3C4)CC2)c2ccncc21)C(C)C [Example 16, 2-(3-(1-((1R,3S,4S)-2-Azabicyclo[2.2.1]heptane-3-carbonyl)piperidine-4-carbonyl)-1H-pyrrolo[2,3-c]pyridin-1-yl)-5-fluoro-N,N-diisopropylbenzamide] |
| 26 | 7.64 | CC(C)c1ncccc1-c1cc(F)ccc1-n1cc(C(=O)C2CN(C(=O)[C@H]3N[C@@H]4CC[C@H]3C4)C2)c2ccncc21 [Example 10, (1-((1R,3S,4S)-2-Azabicyclo[2.2.1]heptane-3-carbonyl)azetidin-3-yl)(1-(4-fluoro-2-(2-isopropylpyridin-3-yl)phenyl)-1H-pyrrolo[2,3-c]pyridin-3-yl)methanone] |
